In patent US7964625B2, “Antibiotics comprising bis(1-aryl-5-tetrazoly1)methane derivatives” (Nederlandse Organisatie Voor …, priority 2005, dated 2011):
≈ marks a conversion by molar mass, not a printed value. Like-named read-outs stand apart in the source and are kept apart here.

Key:
[1] = test system: S. aureus ATCC 29213; assay: MIC test, single strain S. aureus ATCC 29213; format: cell-based; conditions: for MIC: Staphylococcus aureus
Experimental: (§1) MIC test were performed according to standard methodology: M7-A6-“Methods for Dilution Antimicrobial Susceptibility Tests for Bacteria That Grow Aerobically”; Approved Standard, Sixth Edition Clinical and Laboratory Standards Institute 2005 (CLSI/formerly NCCLS).
(§2) Table II lists the results of 6 different compounds according to Formula (I) on single strains of S. aureus as MIC values expressed in micrograms per milliliter.
(§3) Table IV lists additional MIC data on single strains of S. aureus as MIC values expressed in micrograms per milliliter. Again BAS 00160352 (NewCo003) is tested, next to its monochloric pendant (NewCo0030) and several of the new compounds of Table I. Some of the experiments were carried out in duplicate. Strains TTC03.0236 and TTC03.0239 are two MRSA strains obtained from the Utrecht University Medical Centre (UMC 01-8756/140 and UMC 03-543155, respectively). Several of the new compounds of Table I appear to be at least as active as NewCo003.

[2] = test system: S. aureus MW2; assay: MIC test, single strain S. aureus MW2; format: cell-based; conditions: for MIC S. aureus MW2: Table II; for MIC: Staphylococcus aureus, MW2, Table II
Experimental: as §1, §2

[3] = test system: S. aureus N315; assay: MIC test, single strain S. aureus N315; format: cell-based; conditions: for MIC S. aureus N315: Table II; for MIC: Staphylococcus aureus, N315, Table II
Experimental: as §1, §2

[4] = test system: S. aureus strains; assay: MIC test on multiple strains of S. aureus; format: cell-based; conditions: for Range MIC (highest): highest value found; for Range MIC (lowest): lowest value found
Experimental: as §1

[5] = test system: MRSA 2141; assay: Local thigh muscle infection with MRSA 2141 in the mouse, CFU outgrowth; format: in vivo; conditions: for Reduction of MRSA 2141 CFU in thigh muscle: 24 hours after dosing, vs vehicle
Experimental: The purpose of this study was to investigate the antibiotic efficacy of different doses of compound BAS00160352 (NewCo003) against a local infection with MRSA 2141 in the mouse. Thirty mice were treated intravenously with 0.05, 0.5 or 5.0 mg/kg body weight, respectively. Outgrowth of the infection was used to establish drug efficacy.
For each administered dose the appropriate stock solution was made as a 1 ml aliquot of the test substance in the vehicle (DMSO). The stock solutions were stored at 2-8° C. for 16 hours.
(§4) The test substances were administered as a solution in dimethylsulfoxide (DMSO). The test substance was administered as 20 μl injections per mouse at all dose levels. Vancomycin was used as positive control and injected intravenously as a 10 mg/ml solution in DMSO (20 μl per mouse). Fresh dilutions of the test substance in vehicle were provided, stored at 2-8° C., and used within 18 hours after preparation. Shortly before injection the test substance was warmed to room temperature.
The mice were injected i.m. with 22E05 MRSA 2141 bacteria, strain 2141 in the right thigh muscle, followed one day later by an i.v. injection of the test compound, vancomycin or vehicle in the tail vein. 24 hours later mice were sacrificed, blood was collected by heart puncture and the right thigh muscle was removed. Plasma was prepared from blood samples and stored at −80°±10° C. for possible future analysis. Thigh muscles were weighted and homogenized using an Ultra-Turrax® and dilutions of the homogenate were prepared in saline. Limiting dilutions were plated onto agar plates and two days later the number of MRSA 2141 CFU were determined for each individual mouse as an indication of bactericidal activity of the compound. Additionally, tests were performed to determine if the bacteria used are still oxacillin resistant Staphylococcus aureus. This was done before injection and on pooled thigh muscle isolates per group. […] In vivo antibiotic activity is determined by a CFU reduction of >90% (1 log reduction) in comparison to the negative control (vehicle only). […]

[6] = Observation for adverse side effects after i.v. injection in infected mice; format: in vivo; conditions: mouse, i.v., 0.05, 0.5 or 5.0 mg/kg in DMSO
Experimental: as §4
The mice were injected i.m. with 22E05 MRSA 2141 bacteria, strain 2141 in the right thigh muscle, followed one day later by an i.v. injection of the test compound, vancomycin or vehicle in the tail vein. 24 hours later mice were sacrificed, blood was collected by heart puncture and the right thigh muscle was removed. Plasma was prepared from blood samples and stored at −80°±10° C. for possible future analysis. Thigh muscles were weighted and homogenized using an Ultra-Turrax® and dilutions of the homogenate were prepared in saline. Limiting dilutions were plated onto agar plates and two days later the number of MRSA 2141 CFU were determined for each individual mouse as an indication of bactericidal activity of the compound. […] In vivo antibiotic activity is determined by a CFU reduction of >90% (1 log reduction) in comparison to the negative control (vehicle only).

[7] = test system: S. aureus TTC03.0236; assay: MIC test, single strain S. aureus TTC03.0236 (MRSA); format: cell-based; conditions: Table IV, MRSA strain UMC 01-8756/140, some in duplicate
Experimental: as §1, §3

[8] = test system: S. aureus TTC03.0239; assay: MIC test, single strain S. aureus TTC03.0239 (MRSA); format: cell-based; conditions: Table IV, MRSA strain UMC 03-543155, some in duplicate
Experimental: as §1, §3

[9] = ATCC29213, Table II, single strain, read-out: MIC S. aureus ATCC 29213
[10] = Staphylococcus aureus, 60 tested S. aureus strains, read-out: MIC 50
[11] = Staphylococcus aureus, 60 tested S. aureus strains, read-out: MIC 90

Clc1ccc(-n2nnnc2C(Cl)(Cl)c2nnnn2-c2ccc(Cl)cc2)cc1 [NewCo001, Bis-(1-p-chlorobenzen-5-tetrazolyl)-dichloromethane]
MIC S. aureus ATCC 29213 ([1]; Table II, single strain): 16 micrograms per milliliter
MIC S. aureus MW2 [2]: 32 micrograms per milliliter
MIC S. aureus N315 [3]: 2 micrograms per milliliter
MIC50 ([4]; 60 tested S. aureus strains): 4 microgram/milliliter
MIC90 ([4]; 60 tested S. aureus strains): 16 microgram/milliliter
Range MIC (highest) ([4]; 60 tested S. aureus strains): >32 microgram/milliliter
Range MIC (lowest) ([4]; 60 tested S. aureus strains): 1 microgram/milliliter

Cc1ccc(-n2nnnc2C(Cl)(Cl)c2nnnn2-c2ccc(C)cc2)cc1 [NewCo002, Bis-(1-p-tolyl-5-tetrazolyl)-dichloromethane]
MIC [1, 9]: > 32 µg/mL
MIC [2]: > 32 µg/mL
MIC [3]: 4 µg/mL (≈ 9.97 µM)
Range MIC (highest) ([4]; 60 tested S. aureus strains): >32 microgram/milliliter
Range MIC (lowest) ([4]; 60 tested S. aureus strains): 0.5 microgram/milliliter
MIC50 [4, 10]: 32 µg/mL (≈ 79.7 µM)
MIC90 [4, 11]: > 32 µg/mL

Cc1ccccc1-n1nnnc1C(Cl)(Cl)c1nnnn1-c1ccccc1C [NewCo003, Bis-(1-o-tolyl-5-tetrazolyl)-dichloromethane]
MIC [1, 9]: 0.06 µg/mL (≈ 0.15 µM)
MIC ([1]; ATCC29213, Table IV, some in duplicate, read-out: MIC S. aureus ATCC 29213): 0.19 µg/mL (≈ 0.474 µM)
MIC S. aureus ATCC 29213 ([1]; Table IV, some in duplicate): 0.1 micrograms per milliliter
MIC [2]: 0.06 µg/mL (≈ 0.15 µM)
MIC [3]: 0.125 µg/mL (≈ 0.312 µM)
Range MIC (highest) ([4]; 60 tested S. aureus strains): 0.5 microgram/milliliter
Range MIC (lowest) ([4]; 60 tested S. aureus strains): 0.03 microgram/milliliter
MIC50 [4, 10]: 0.06 µg/mL (≈ 0.15 µM)
MIC90 [4, 11]: 0.12 µg/mL (≈ 0.299 µM)
Trend of dose-dependent efficacy ([5]; i.v., 0.05 to 5.0 mg/kg): no significant trend of dose-dependent efficacy was observed
Reduction of MRSA 2141 CFU in thigh muscle ([5]; single i.v. dose 0.05, 0.5 or 5.0 mg/kg one day after infection): Approximately 2 Log reduction
Signs of adverse side effects during observation after injection [6]: no signs of adverse side effects were observed

ClC(Cl)(c1nnnn1-c1ccccc1)c1nnnn1-c1ccccc1 [NewCo004, Bis-(1-benzene-5-tetrazolyl)-dichloromethane]
MIC S. aureus ATCC 29213 ([1]; Table II, single strain): 1 micrograms per milliliter
MIC S. aureus MW2 [2]: 1 micrograms per milliliter
MIC S. aureus N315 [3]: 0.25 micrograms per milliliter
MIC50 ([4]; 60 tested S. aureus strains): 1 microgram/milliliter
MIC90 ([4]; 60 tested S. aureus strains): 2 microgram/milliliter
Range MIC (highest) ([4]; 60 tested S. aureus strains): 4 microgram/milliliter
Range MIC (lowest) ([4]; 60 tested S. aureus strains): 0.25 microgram/milliliter

Cc1ccc(-n2nnnc2C(Cl)c2nnnn2-c2ccc(C)cc2)cc1 [NewCo005, Bis-(1-p-tolyl-5-tetrazolyl)-chloromethane]
MIC [1, 9]: 4 µg/mL (≈ 10.9 µM)

COc1ccccc1-n1nnnc1C(Cl)(Cl)c1nnnn1-c1ccccc1OC [NewCo006, Bis-(1-o-methoxybenzene-5-tetrazolyl)-dichloromethane]
MIC S. aureus ATCC 29213 ([1]; Table II, single strain): 4 micrograms per milliliter

COc1ccccc1-n1nnnc1C(Cl)(Cl)c1nnnn1-c1ccccc1OC [NewCo007, Bis-(1-o-methoxybenzene-5-tetrazolyl)-dichloromethane]
MIC S. aureus ATCC 29213 ([1]; Table IV, some in duplicate): 1.56 micrograms per milliliter
MIC S. aureus TTC03.0236 [7]: 1.56 micrograms per milliliter
MIC S. aureus TTC03.0239 [8]: 1.56 micrograms per milliliter

Fc1ccccc1-n1nnnc1C(Cl)(Cl)c1nnnn1-c1ccccc1F [NewCo0018, Bis-(1-o-fluorobenzene-5-tetrazolyl)-dichloromethane]
MIC S. aureus ATCC 29213 ([1]; Table IV, some in duplicate): 1.56 micrograms per milliliter
MIC S. aureus TTC03.0236 [7]: 0.78 micrograms per milliliter

COc1ccc(-n2nnnc2C(Cl)(Cl)c2nnnn2-c2ccc(OC)c(Cl)c2)cc1Cl [NewCo0021, Bis-(1-m-chloro-p-methoxybenzene-5-tetrazolyl)-dichloromethane]
MIC S. aureus ATCC 29213 ([1]; Table IV, some in duplicate): 1.56 micrograms per milliliter
MIC S. aureus TTC03.0236 [7]: 0.78 micrograms per milliliter
MIC S. aureus TTC03.0239 [8]: 1.56 micrograms per milliliter

COc1ccc(Cl)cc1-n1nnnc1C(Cl)(Cl)c1nnnn1-c1cc(Cl)ccc1OC [NewCo0022]
MIC S. aureus ATCC 29213 ([1]; Table IV, some in duplicate): ≦0.05 micrograms per milliliter
MIC S. aureus TTC03.0236 [7]: 0.1 micrograms per milliliter
MIC S. aureus TTC03.0239 [8]: 0.19 micrograms per milliliter

Clc1cccc(-n2nnnc2C(Cl)(Cl)c2nnnn2-c2cccc(Cl)c2Cl)c1Cl [NewCo0023, Bis-(1-o,m-dichlorobenzene-5-tetrazolyl)-dichloromethane]
MIC S. aureus ATCC 29213 ([1]; Table IV, some in duplicate): 0.19 micrograms per milliliter
MIC S. aureus TTC03.0236 [7]: 0.19 micrograms per milliliter
MIC S. aureus TTC03.0239 [8]: 0.39 micrograms per milliliter

CN[C@H](CC(C)C)C(=O)N[C@H]1C(=O)N[C@@H](CC(N)=O)C(=O)N[C@H]2C(=O)N[C@H]3C(=O)N[C@H](C(=O)N[C@H](C(=O)O)c4cc(O)cc(O)c4-c4cc3ccc4O)[C@H](O)c3ccc(c(Cl)c3)Oc3cc2cc(c3O[C@@H]2O[C@H](CO)[C@@H](O)[C@H](O)[C@H]2O[C@H]2C[C@](C)(N)[C@H](O)[C@H](C)O2)Oc2ccc(cc2Cl)[C@H]1O [vancomycin, reference compound]
MIC ([1]; ATCC29213, read-out: MIC S. aureus ATCC 29213, Table IV, some in duplicate): 1.56 µg/mL (≈ 1.08 µM)
MIC S. aureus ATCC 29213 ([1]; Table IV, some in duplicate, listed as vancomycine): 0.78 micrograms per milliliter
Range MIC (highest) ([4]; 60 tested S. aureus strains): 4 microgram/milliliter
Range MIC (lowest) ([4]; 60 tested S. aureus strains): 0.12 microgram/milliliter
MIC50 ([4]; Staphylococcus aureus): 0.5 µg/mL (≈ 0.345 µM)
MIC90 ([4]; Staphylococcus aureus): 1 µg/mL (≈ 0.69 µM)
Reduction of MRSA 2141 CFU in thigh muscle ([5]; positive control, single i.v. dose 10 mg/kg): Over 1 Log reduction
